The text below walks through data of patent US12103924B2, “Mitogen-activated protein kinase kinase (MEK) degradation compounds and methods of use” (Icahn School of Medicine at Mount Sinai, priority 2020, dated 2024).

Test [1] relates to HT-29 cells. The test is described as follows: MTT cell viability assay, HT-29. It is filed as cell-based. Conditions: Homo sapiens, 72 h, MTT assay, 3 d treatment, serial dilutions. For orientation: Formazan colour is commonly taken as a measure of viable cells.
Description: MTT assay was conducted for HT-29 cells after 3 d treatment with indicated compounds with serial dilutions.
MTT assay was conducted for HT-29 (A) and SK-MEL-28 (B) cells after 3 d treatment with DMSO or indicated compounds with serial dilutions. Clonogenic assay was performed in HT-29 (C) and SK-MEL-28 (D) cells for 14 d treatment with DMSO or indicated compounds with 10, 30 and 100 nM, in duplicate, respectively. Cells were then stained by crystal violet.
Cells (2000 cells per well) were seeded into 96-well microplates. After 20 h, cells were treated with 0.1% DMSO or indicated serial dilutions of compounds in duplicate or triplicate for 3 days. Cell viability was tested using MTT (M6494, Thermo Fisher Scientific) or WST-8 reagent (CK04, Dojindo). Briefly, 12 mM MTT was prepared in PBS or WST-8 reagent was warmed up to room temperature. 20 μL MTT or CCK-8 was then added to each well and the plates were kept in incubator at 37° C. for 3 h in the dark. For the WST-8 assay, signal was obtained after the incubation. For the MTT assay, cell medium was replaced with 200 μL of DMSO after the incubation, and then cell plates were kept at 37° C. for another 30 min. Absorbance signals for MTT and WST-8 were read at 540 nm and 450 nm respectively, with 690 nm as reference performed with Infinite F PLEX plate reader (TECAN, Morrisville, NC, USA). GI50 values were analyzed using GraphPad Prism 8 from the data of at least three independent experiments.
HT-29 or SK-MEL-28 cells (300 cells per well) were seeded in 12-well plates. After 20 h, cells were treated with DMSO or indicated concentrations of compounds in duplicate for two weeks. Medium containing indicated compounds was changed every 3 days. Cells were then fixed and stained with the solution containing 6% (v/v) glutaraldehyde (G5882, Sigma-Aldrich) and 0.5% (w/v) crystal violet for 1 h. To remove the background color, the plates with stained cells were immersed in running water until clear colonies were observed. The plates were dried at RT. The staining images were obtained with Epson Perfection V600 Photo.
Test [2] has as its system MEK1/2. The test is described as follows: Western blot of MEK1/2 protein levels in HT-29 cells. The format is cell-based. As to conditions: 24 h. Background: A western blot detects proteins with antibodies after separation by electrophoresis.
Description: Compound concentrations are 0.3 μM, 1 μM and 3 μM.
The indicated protein levels were determined by Western blots.
The sample was centrifuged at 12,000 g for 10 min at 4° C. to get supernatant as cell lysate. Protein concentrations were quantified using Pierce rapid gold BCA protein assay kit.
The mark [3] stands for this setting: HT-29 cells, 0.3 μM, 1 μM and 3 μM, western blot normalized with α-tubulin.

For orientation: GI50 means the concentration that inhibits growth by half. A high value points to less potent growth inhibition. In test [1], `Cc1ncsc1-c1ccc(CNC(=O)[C@@H]2C[C@@H](O)CN2C(=O)[C@@H](NC(=O)CCCCCCNCCCONC(=O)c2ccc(F)c(F)c2Nc2ccc(I)cc2F)C(C)(C)C)cc1` [CPD-001, (2S,4R)-1-((S)-16-(tert-Butyl)-1-(3,4-difluoro-2-((2-fluoro-4-iodophenyl)amino)phenyl)-1,14-dioxo-3-oxa-2,7,15-triazaheptadecan-17-oyl)-4-hydroxy-N-(4-(4-methylthiazol-5-yl)benzyl)pyrrolidine-2-carboxamide] gave a GI50 of 1.4 ± 0.2 µM. The “MEK1 and MEK2 protein levels” value in test [2] (setting [3]) is reported as “reduced”. In turn, `Cc1ncsc1-c1ccc(CNC(=O)[C@@H]2C[C@@H](O)CN2C(=O)[C@@H](NC(=O)CCCCCCCCCCNCCCONC(=O)c2ccc(F)c(F)c2Nc2ccc(I)cc2F)C(C)(C)C)cc1` [CPD-014, (2S,4R)-1-((S)-20-(tert-butyl)-1-(3,4-difluoro-2-((2-fluoro-4-iodophenyl)amino)phenyl)-1,18-dioxo-3-oxa-2,7,19-triazahenicosan-21-oyl)-4-hydroxy-N-(4-(4-methylthiazol-5-yl)benzyl)pyrrolidine-2-carboxamide] yielded a GI50 in test [1] of 0.4 ± 0.2 µM. For the same molecule, the “MEK1 and MEK2 protein levels” value in test [2] (setting [3]) is recorded as “reduced”. For `Cc1ncsc1-c1ccc(CNC(=O)[C@@H]2C[C@@H](O)CN2C(=O)[C@@H](NC(=O)COCCOCCOCCNCCCONC(=O)c2ccc(F)c(F)c2Nc2ccc(I)cc2F)C(C)(C)C)cc1` [CPD-015, (2S,4R)-1-((S)-20-(tert-butyl)-1-(3,4-difluoro-2-((2-fluoro-4-iodophenyl)amino)phenyl)-1,18-dioxo-3,10,13,16-tetraoxa-2,7,19-triazahenicosan-21-oyl)-4-hydroxy-N-(4-(4-methylthiazol-5-yl)benzyl)pyrrolidine-2-carboxamide] the same measures were 1.3 ± 0.1 µM and “reduced”. `O=C1CCC(N2C(=O)c3cccc(NCCOCCNCCCONC(=O)c4ccc(F)c(F)c4Nc4ccc(I)cc4F)c3C2=O)C(=O)N1` (centres unmarked) [CPD-019, N-(3-((2-(2-((2-(2,6-dioxopiperidin-3-yl)-1,3-dioxoisoindolin-4-yl)amino)ethoxy)ethyl)amino)propoxy)-3,4-difluoro-2-((2-fluoro-4-iodophenyl)amino)benzamide] showed a GI50 in test [1] of 1.2 ± 0.2 µM. Further, the “MEK1 and MEK2 protein levels” value in test [2] (setting [3]) is recorded as “not”. On the same counts, the results for `O=C1CCC(N2C(=O)c3cccc(NCCNCCCONC(=O)c4ccc(F)c(F)c4Nc4ccc(I)cc4F)c3C2=O)C(=O)N1` (centres unmarked) [CPD-024, N-(3-((2-((2-(2,6-dioxopiperidin-3-yl)-1,3-dioxoisoindolin-4-yl)amino)ethyl)amino)propoxy)-3,4-difluoro-2-((2-fluoro-4-iodophenyl)amino)benzamide] are 0.4 ± 0.01 µM and “not”. Consider `O=C1CCC(N2C(=O)c3cccc(NCCCCCCNCCCONC(=O)c4ccc(F)c(F)c4Nc4ccc(I)cc4F)c3C2=O)C(=O)N1` (centres unmarked) [CPD-028, N-(3-((6-((2-(2,6-dioxopiperidin-3-yl)-1,3-dioxoisoindolin-4-yl)amino)hexyl)amino)propoxy)-3,4-difluoro-2-((2-fluoro-4-iodophenyl)amino)benzamide], for which the 50% growth inhibitory concentration (GI50) in test [1] came out at 3.8 ± 1.7 µM. Same read-out and setting: the result for `O=C1CCC(N2C(=O)c3cccc(NCCCCCCCNCCCONC(=O)c4ccc(F)c(F)c4Nc4ccc(I)cc4F)c3C2=O)C(=O)N1` (centres unmarked) [CPD-029, N-(3-((7-((2-(2,6-dioxopiperidin-3-yl)-1,3-dioxoisoindolin-4-yl)amino)heptyl)amino)propoxy)-3,4-difluoro-2-((2-fluoro-4-iodophenyl)amino)benzamide] reads 4.5 ± 1.9 µM; that for `O=C1CCC(N2C(=O)c3cccc(NCCCCCCCCNCCCONC(=O)c4ccc(F)c(F)c4Nc4ccc(I)cc4F)c3C2=O)C(=O)N1` (centres unmarked) [CPD-030, N-(3-((8-((2-(2,6-dioxopiperidin-3-yl)-1,3-dioxoisoindolin-4-yl)amino)octyl)amino)propoxy)-3,4-difluoro-2-((2-fluoro-4-iodophenyl)amino)benzamide], 3.5 ± 0.9 µM; that for `Cc1ncsc1-c1ccc([C@H](C)NC(=O)[C@@H]2C[C@@H](O)CN2C(=O)[C@@H](NC(=O)CCCCCCCCCCCNCCCONC(=O)c2ccc(F)c(F)c2Nc2ccc(I)cc2F)C(C)(C)C)cc1` [CPD-033, (2S,4R)-1-((S)-21-(tert-butyl)-1-(3,4-difluoro-2-((2-fluoro-4-iodophenyl)amino)phenyl)-1,19-dioxo-3-oxa-2,7,20-triazadocosan-22-oyl)-4-hydroxy-N—((S)-1-(4-(4-methylthiazol-5-yl)phenyl)ethyl)pyrrolidine-2-carboxamide], 0.099 ± 0.008 µM. Same read-out and setting: for `Cc1ncsc1-c1ccc([C@H](C)NC(=O)[C@@H]2C[C@@H](O)CN2C(=O)[C@@H](NC(=O)CCCCCCCCCNCCCCONC(=O)c2ccc(F)c(F)c2Nc2ccc(I)cc2F)C(C)(C)C)cc1` [CPD-035, (2S,4R)-1-((S)-20-(tert-butyl)-1-(3,4-difluoro-2-((2-fluoro-4-iodophenyl)amino)phenyl)-1,18-dioxo-3-oxa-2,8,19-triazahenicosan-21-oyl)-4-hydroxy-N—((S)-1-(4-(4-methylthiazol-5-yl)phenyl)ethyl)pyrrolidine-2-carboxamide] the value was 0.055 ± 0.005 µM. On the same count and under the same terms, the result for `Cc1ncsc1-c1ccc([C@H](C)NC(=O)[C@@H]2C[C@@H](O)CN2C(=O)[C@@H](NC(=O)CCCCCCCCCNCCCONC(=O)c2ccc(F)c(F)c2Nc2ccc(I)cc2F)C(C)(C)C)cc1` [CPD-036, (2S,4R)-1-((S)-19-(tert-butyl)-1-(3,4-difluoro-2-((2-fluoro-4-iodophenyl)amino)phenyl)-1,17-dioxo-3-oxa-2,7,18-triazaicosan-20-oyl)-4-hydroxy-N—((S)-1-(4-(4-methylthiazol-5-yl)phenyl)ethyl)pyrrolidine-2-carboxamide] reads 0.24 ± 0.055 µM; that for `Cc1ncsc1-c1ccc([C@H](C)NC(=O)[C@@H]2C[C@@H](O)CN2C(=O)[C@@H](NC(=O)CCCCCCCCCCNCCCCONC(=O)c2ccc(F)c(F)c2Nc2ccc(I)cc2F)C(C)(C)C)cc1` [CPD-039, (2S,4R)-1-((S)-21-(tert-butyl)-1-(3,4-difluoro-2-((2-fluoro-4-iodophenyl)amino)phenyl)-1,19-dioxo-3-oxa-2,8,20-triazadocosan-22-oyl)-4-hydroxy-N—((S)-1-(4-(4-methylthiazol-5-yl)phenyl)ethyl)pyrrolidine-2-carboxamide], 0.043 ± 0.001 µM.

`O=C1CCC(N2C(=O)c3ccc(NCCCNCCCONC(=O)c4ccc(F)c(F)c4Nc4ccc(I)cc4F)cc3C2=O)C(=O)N1` (centres unmarked) [CPD-041, N-(3-((3-((2-(2,6-dioxopiperidin-3-yl)-1,3-dioxoisoindolin-5-yl)amino)propyl)amino)propoxy)-3,4-difluoro-2-((2-fluoro-4-iodophenyl)amino)benzamide]: in test [1], it took 0.5 ± 0.2 µM to inhibit growth by half (GI50). Besides, the “MEK1 and MEK2 protein levels” value in test [2] (setting [3]) is given as “not”. On to `O=C1CCC(N2C(=O)c3ccc(NCCCCNCCCONC(=O)c4ccc(F)c(F)c4Nc4ccc(I)cc4F)cc3C2=O)C(=O)N1` (centres unmarked) [CPD-042, N-(3-((4-((2-(2,6-dioxopiperidin-3-yl)-1,3-dioxoisoindolin-5-yl)amino)butyl)amino)propoxy)-3,4-difluoro-2-((2-fluoro-4-iodophenyl)amino)benzamide], for which halving of growth in test [1] (GI50) required 1 ± 0.4 µM. The molecule `O=C1CCC(N2C(=O)c3ccc(NCCCCCNCCCONC(=O)c4ccc(F)c(F)c4Nc4ccc(I)cc4F)cc3C2=O)C(=O)N1` (centres unmarked) [CPD-043, N-(3-((5-((2-(2,6-dioxopiperidin-3-yl)-1,3-dioxoisoindolin-5-yl)amino)pentyl)amino)propoxy)-3,4-difluoro-2-((2-fluoro-4-iodophenyl)amino)benzamide] returned a GI50 in test [1] of 0.5 ± 0.1 µM. In addition, in test [2] (setting [3]), the “MEK1 and MEK2 protein levels” value was “significantly degraded”.

With `O=C1CCC(N2C(=O)c3ccc(NCCCCCCNCCCONC(=O)c4ccc(F)c(F)c4Nc4ccc(I)cc4F)cc3C2=O)C(=O)N1` (centres unmarked) [CPD-044, N-(3-((6-((2-(2,6-dioxopiperidin-3-yl)-1,3-dioxoisoindolin-5-yl)amino)hexyl)amino)propoxy)-3,4-difluoro-2-((2-fluoro-4-iodophenyl)amino)benzamide], the GI50 in test [1] amounted to 1.1 ± 0.5 µM. In the case of `O=C1CCC(N2C(=O)c3ccc(NCCCCCCCNCCCONC(=O)c4ccc(F)c(F)c4Nc4ccc(I)cc4F)cc3C2=O)C(=O)N1` (centres unmarked) [CPD-045, N-(3-((7-((2-(2,6-dioxopiperidin-3-yl)-1,3-dioxoisoindolin-5-yl)amino)heptyl)amino)propoxy)-3,4-difluoro-2-((2-fluoro-4-iodophenyl)amino)benzamide], in test [1], halving of growth (GI50) required 0.5 ± 0.2 µM. In test [2] (setting [3]), the “MEK1 and MEK2 protein levels” value was “significantly degraded”. On to `O=C1CCC(N2C(=O)c3ccc(NCCOCCNCCCONC(=O)c4ccc(F)c(F)c4Nc4ccc(I)cc4F)cc3C2=O)C(=O)N1` (centres unmarked) [CPD-047, N-(3-((2-(2-((2-(2,6-dioxopiperidin-3-yl)-1,3-dioxoisoindolin-5-yl)amino)ethoxy)ethyl)amino)propoxy)-3,4-difluoro-2-((2-fluoro-4-iodophenyl)amino)benzamide], for which, in test [1], the GI50 turned out to be 1.4 ± 0.7 µM. On the same count and under the same terms, for `O=C1CCC(N2C(=O)c3ccc(NCCOCCOCCNCCCONC(=O)c4ccc(F)c(F)c4Nc4ccc(I)cc4F)cc3C2=O)C(=O)N1` (centres unmarked) [CPD-048, N-(3-((2-(2-(2-((2-(2,6-dioxopiperidin-3-yl)-1,3-dioxoisoindolin-5-yl)amino)ethoxy)ethoxy)ethyl)amino)propoxy)-3,4-difluoro-2-((2-fluoro-4-iodophenyl)amino)benzamide] the value was 1.1 ± 0.3 µM; for `O=C1CCC(N2C(=O)c3ccc(NCCOCCOCCOCCNCCCONC(=O)c4ccc(F)c(F)c4Nc4ccc(I)cc4F)cc3C2=O)C(=O)N1` (centres unmarked) [CPD-049, N-((1-((2-(2,6-dioxopiperidin-3-yl)-1,3-dioxoisoindolin-5-yl)amino)-3,6,9-trioxa-12-azapentadecan-15-yl)oxy)-3,4-difluoro-2-((2-fluoro-4-iodophenyl)amino)benzamide], 1.5 ± 0.5 µM. Regarding `O=C(NOC[C@H](O)CO)c1ccc(F)c(F)c1Nc1ccc(I)cc1F` [PD0325901, reference compound], in test [2] (HT-29 cells, 0.1, 0.3, or 1 μM), the “MEK1 and MEK2 protein levels” value is recorded as “not”.
